Laboratory results from the supplement of paper PMC10627819.

Columns and labels:
S. aureus DSM 20231 [1] = assay: Bliss interaction score (quartile over a dose matrix) (fitness difference); higher = more antagonism (negative = synergy)
Summary of the method: (§1)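 The Bliss score takes observed fitness and subtracts the expected fitness, calculated as a product of single-drug fitness values. Those single-drug values were inferred from the combination data. Fitness is OD595 at entry into stationary phase divided by the plate's robust no-drug mean, capped at 1, and the score is summarised by quartiles across technical, biological and donor/recipient replicates.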

S. aureus Newman [2] = assay: as above
Summary of the method: as §1

S. pneumoniae D39V [3] = assay: as above
Summary of the method: as §1

B. subtilis 168 = assay: as above
Summary of the method: as §1

S. aureus DSM 20231 [4] = assay: fitness (endpoint OD595 vs no drug) (fraction); higher = more growth
Summary of the method: (§2)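 At 37 °C, bacteria in TSB, LB Lennox or CY were grown in 384-well plates from a starting OD595 of 0.01. OD595 was measured every 30 min for 14 h, with the first reading used as background. Fitness is the optical density at the switch to stationary phase as a fraction of the robust mean of no-drug control wells, capped at 1.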

S. aureus Newman [5] = assay: as above
Summary of the method: as §2

S. pneumoniae D39V [6] = assay: as above
Summary of the method: as §2
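Throughout, for Bliss interaction score (quartile over a dose matrix): first quartile when negative (synergy) and third quartile when positive (antagonism).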
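Throughout, for fitness (endpoint OD595 vs no drug): OD595 on entry to stationary phase over no-drug wells; at most 1.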

CC1(C)S[C@@H]2[C@H](NC(=O)[C@H](N)c3ccc(O)cc3)C(=O)N2[C@H]1C(=O)O [Amoxicillin] + CN[C@@H]1[C@H](O)[C@H](NC)[C@H]2O[C@@]3(O)C(=O)C[C@@H](C)O[C@H]3O[C@@H]2[C@H]1O [Spectinomycin]
Settings	Bliss interaction score
B. subtilis 168	-0.0495
S. aureus DSM 20231 [1]	0.0589
S. aureus Newman [2]	0.0408
S. pneumoniae D39V [3]	0.0712

fitness
Settings	partner 4 µg/mL	partner 8 µg/mL	partner 16 µg/mL
S. aureus DSM 20231 [4], first compound 0.0625 µg/mL	0.649	0.63	0.572
S. aureus DSM 20231 [4], first compound 0.125 µg/mL	0.414	–	–
S. aureus DSM 20231 [4], first compound 0.25 µg/mL	–	0.148	–
S. aureus Newman [5], first compound 0.0625 µg/mL	0.874	0.876	0.823
S. aureus Newman [5], first compound 0.125 µg/mL	0.875	0.861	0.816
S. aureus Newman [5], first compound 0.25 µg/mL	0.863	0.826	–
S. pneumoniae D39V [6], first compound 0.0008 µg/mL	0.962	0.911	–
S. pneumoniae D39V [6], first compound 0.0015 µg/mL	0.975	0.94	0.887
S. pneumoniae D39V [6], first compound 0.003 µg/mL	0.882	0.89	0.826

one replicate
Settings	fitness
S. aureus DSM 20231 [4], first compound 0.0625 µg/mL, partner 32 µg/mL	0.533
S. aureus DSM 20231 [4], first compound 0.0625 µg/mL, partner 64 µg/mL	0.0322
S. aureus DSM 20231 [4], first compound 0.125 µg/mL, partner 32 µg/mL	0.302
S. aureus DSM 20231 [4], first compound 0.125 µg/mL, partner 64 µg/mL	0.0172
S. aureus DSM 20231 [4], first compound 0.25 µg/mL, partner 32 µg/mL	0.0187
S. aureus DSM 20231 [4], first compound 0.25 µg/mL, partner 64 µg/mL	0.0033
S. aureus DSM 20231 [4], first compound 0.5 µg/mL, partner 4 µg/mL	0.0014
S. aureus DSM 20231 [4], first compound 0.5 µg/mL, partner 8 µg/mL	0.0081
S. aureus DSM 20231 [4], first compound 0.5 µg/mL, partner 16 µg/mL	0
S. aureus Newman [5], first compound 0.0625 µg/mL, partner 32 µg/mL	0.373
S. aureus Newman [5], first compound 0.0625 µg/mL, partner 64 µg/mL	0.0208
S. aureus Newman [5], first compound 0.125 µg/mL, partner 32 µg/mL	0.308
S. aureus Newman [5], first compound 0.125 µg/mL, partner 64 µg/mL	0.03
S. aureus Newman [5], first compound 0.25 µg/mL, partner 32 µg/mL	0.141
S. aureus Newman [5], first compound 0.25 µg/mL, partner 64 µg/mL	0.0162
S. pneumoniae D39V [6], first compound 0.0008 µg/mL, partner 16 µg/mL	0.951
S. pneumoniae D39V [6], first compound 0.006 µg/mL, partner 4 µg/mL	0.274
S. pneumoniae D39V [6], first compound 0.006 µg/mL, partner 8 µg/mL	0.329
S. pneumoniae D39V [6], first compound 0.006 µg/mL, partner 16 µg/mL	0.416

CC1(C)S[C@@H]2[C@H](NC(=O)[C@H](N)c3ccc(O)cc3)C(=O)N2[C@H]1C(=O)O [Amoxicillin] + CN[C@H](CC(C)C)C(=O)N[C@H]1C(=O)N[C@@H](CC(N)=O)C(=O)N[C@H]2C(=O)N[C@H]3C(=O)N[C@H](C(=O)N[C@H](C(=O)O)c4cc(O)cc(O)c4-c4cc3ccc4O)[C@H](O)c3ccc(c(Cl)c3)Oc3cc2cc(c3O[C@@H]2O[C@H](CO)[C@@H](O)[C@H](O)[C@H]2O[C@H]2C[C@](C)(N)[C@H](O)[C@H](C)O2)Oc2ccc(cc2Cl)[C@H]1O [Vancomycin]
Settings	Bliss interaction score
B. subtilis 168	-0.0442
S. aureus DSM 20231 [1]	0.074
S. aureus Newman [2]	0.0681
S. pneumoniae D39V [3]	0.101

Settings	fitness
S. aureus DSM 20231 [4], first compound 0.0625 µg/mL, partner 0.1875 µg/mL	0.605
S. aureus DSM 20231 [4], first compound 0.0625 µg/mL, partner 0.375 µg/mL	0.667
S. aureus DSM 20231 [4], first compound 0.125 µg/mL, partner 0.1875 µg/mL	0.397
S. aureus DSM 20231 [4], first compound 0.125 µg/mL, partner 0.375 µg/mL	0.452
S. aureus DSM 20231 [4], first compound 0.25 µg/mL, partner 0.1875 µg/mL	0.125
S. aureus DSM 20231 [4], first compound 0.25 µg/mL, partner 0.375 µg/mL	0.15
S. aureus DSM 20231 [4], first compound 0.25 µg/mL, partner 0.75 µg/mL	0.176
S. aureus DSM 20231 [4], first compound 0.5 µg/mL, partner 0.1875 µg/mL	0.0104
S. aureus DSM 20231 [4], first compound 0.5 µg/mL, partner 0.375 µg/mL	0.0135
S. aureus DSM 20231 [4], first compound 0.5 µg/mL, partner 0.75 µg/mL	0.0165
S. aureus Newman [5], first compound 0.0625 µg/mL, partner 0.1875 µg/mL	0.916
S. aureus Newman [5], first compound 0.0625 µg/mL, partner 0.375 µg/mL	0.914
S. aureus Newman [5], first compound 0.0625 µg/mL, partner 0.75 µg/mL	0.879
S. aureus Newman [5], first compound 0.125 µg/mL, partner 0.1875 µg/mL	0.887
S. aureus Newman [5], first compound 0.125 µg/mL, partner 0.375 µg/mL	0.875
S. aureus Newman [5], first compound 0.125 µg/mL, partner 0.75 µg/mL	0.877
S. aureus Newman [5], first compound 0.25 µg/mL, partner 0.1875 µg/mL	0.89
S. aureus Newman [5], first compound 0.25 µg/mL, partner 0.375 µg/mL	0.866
S. aureus Newman [5], first compound 0.25 µg/mL, partner 0.75 µg/mL	0.811
S. pneumoniae D39V [6], first compound 0.0008 µg/mL, partner 0.03125 µg/mL	0.988
S. pneumoniae D39V [6], first compound 0.0008 µg/mL, partner 0.0625 µg/mL	0.871
S. pneumoniae D39V [6], first compound 0.0008 µg/mL, partner 0.125 µg/mL	0.894
S. pneumoniae D39V [6], first compound 0.0015 µg/mL, partner 0.03125 µg/mL	0.977
S. pneumoniae D39V [6], first compound 0.0015 µg/mL, partner 0.0625 µg/mL	0.852
S. pneumoniae D39V [6], first compound 0.0015 µg/mL, partner 0.125 µg/mL	0.913
S. pneumoniae D39V [6], first compound 0.0015 µg/mL, partner 0.25 µg/mL	0.869
S. pneumoniae D39V [6], first compound 0.0015 µg/mL, partner 0.5 µg/mL	0.299
S. pneumoniae D39V [6], first compound 0.003 µg/mL, partner 0.03125 µg/mL	0.861
S. pneumoniae D39V [6], first compound 0.003 µg/mL, partner 0.0625 µg/mL	0.762
S. pneumoniae D39V [6], first compound 0.003 µg/mL, partner 0.125 µg/mL	0.783
S. pneumoniae D39V [6], first compound 0.003 µg/mL, partner 0.25 µg/mL	0.742
S. pneumoniae D39V [6], first compound 0.003 µg/mL, partner 0.5 µg/mL	0.289

fitness, S. pneumoniae D39V [6], one replicate
Settings	partner 0.125 µg/mL	partner 0.25 µg/mL	partner 0.5 µg/mL
first compound 0.0008 µg/mL	–	0.928	0.33
first compound 0.006 µg/mL	0.234	0.13	0.0321
